The source of these data is patent US8722930B2, “Protease inhibitors” (Orion Corporation, priority 2009, dated 2014).

Data set [1] has as its target T1, Purified recombinant matriptase (Homo sapiens, UniProt Q9Y5Y6).
T1 sequence (Q9Y5Y6 1-855): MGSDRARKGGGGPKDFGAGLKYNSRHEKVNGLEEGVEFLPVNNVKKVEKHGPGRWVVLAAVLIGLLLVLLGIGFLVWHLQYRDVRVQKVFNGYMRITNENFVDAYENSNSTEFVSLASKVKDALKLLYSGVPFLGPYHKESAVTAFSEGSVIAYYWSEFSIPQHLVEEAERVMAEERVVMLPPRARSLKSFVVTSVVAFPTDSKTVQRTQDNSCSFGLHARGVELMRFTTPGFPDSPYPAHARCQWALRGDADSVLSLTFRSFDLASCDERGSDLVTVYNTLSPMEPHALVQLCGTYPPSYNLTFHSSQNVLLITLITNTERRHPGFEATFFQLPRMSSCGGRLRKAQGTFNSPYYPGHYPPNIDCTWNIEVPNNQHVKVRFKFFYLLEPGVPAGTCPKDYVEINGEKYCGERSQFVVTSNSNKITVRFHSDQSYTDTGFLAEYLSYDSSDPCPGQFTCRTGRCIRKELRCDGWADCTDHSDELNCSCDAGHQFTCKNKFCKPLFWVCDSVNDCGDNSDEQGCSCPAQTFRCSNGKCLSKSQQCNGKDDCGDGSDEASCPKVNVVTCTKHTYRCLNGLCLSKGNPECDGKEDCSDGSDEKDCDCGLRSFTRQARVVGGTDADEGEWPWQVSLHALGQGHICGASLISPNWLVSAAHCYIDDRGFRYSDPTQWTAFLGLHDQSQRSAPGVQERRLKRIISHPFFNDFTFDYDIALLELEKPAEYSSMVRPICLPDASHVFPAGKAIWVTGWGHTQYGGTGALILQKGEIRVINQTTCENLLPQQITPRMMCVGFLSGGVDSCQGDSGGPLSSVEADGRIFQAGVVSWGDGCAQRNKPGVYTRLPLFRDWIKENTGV
The data set can be described thus: Matriptase fluorescence-based enzymatic assay (Boc-Gln-Ala-Arg-AMC cleavage). The format is biochemical. An excerpt:
(§1) Purified recombinant matriptase was used in a fluorescence-based screening assay using Gln-Ala-Arg peptide as a substrate. In this assay the cleavage of AMC from Boc-Gln-Ala-Arg-7-amido-4 methylcoumarin hydrochloride (Boc-Gln-Ala-Arg-AMC) (Sigma, USA) was monitored by measuring the increase in fluorescence intensity of AMC released upon proteolytic cleavage at 480 nm (kex=360 nm). Similarly, enzymatic assays in fluorimetric or colorimetric format for uPA, Factor Xa, thrombin, plasmin and trypsin (Sigma, USA) were established using substrates pyroGlu-Gly-Arg-pNA.HCl, Boc-Gln-Ala-Arg-AMC, CH3OCO-D-CHA-Gly-Arg-PNA.AcoH, Pyro Glu-Phe-Lys—pNA.HCl and Boc-Gln-Ala-Arg-AMC, respectively.

The target of the next data set is T2, plasmin (Homo sapiens, UniProt P00747).
T2 construct: uPA, Factor Xa, thrombin, plasmin and trypsin (Sigma, USA); purchased Sigma, USA
The data set can be described thus: Plasmin enzymatic assay (selectivity screening). Format: biochemical.
From the text: as §1

For data set [2], the system named is DU145 cells. The data set can be described thus: Soft agar colony formation assay. Format: cell-based. Particulars: Homo sapiens, DU-145, 504 h, about three weeks, read-out: EC50 for inhibition of soft agar colony formation. The procedure: Soft agar colony formation assays were performed to measure the long-term survival and anchorage-independent growth capacity of tumor cells. DU145 cells were seeded in 0.7% nutrient agar with the test compound on an underlay of 1.4% nutrient agar in a six well plate. On the day following cell seeding, liquid cell culture medium containing the compound was added to the well to prevent the agar from drying out and was changed regularly till the completion of the experiment. The cells were allowed to form colonies for a period of about three weeks following which the colonies were stained with 0.005% solution of crystal violet in 25% methanol. The colonies were counted under a dissecting microscope.

In a further data set the test system is trypsin. The data set can be described thus: Trypsin enzymatic assay (selectivity screening). The format is biochemical. The following applies: % Inhibition at 5 μM.
From the text: as §1

For another data set, the target named is T3, uPA (Homo sapiens, UniProt P00749).
T3 construct: purchased Sigma, USA
The data set can be described thus: uPA enzymatic assay (selectivity screening). The format is biochemical.
From the text: as §1

A further data set has as its target T4, thrombin (Homo sapiens, UniProt P00734).
T4 construct: uPA, Factor Xa, thrombin, plasmin and trypsin (Sigma, USA); purchased Sigma, USA
The data set can be described thus: Thrombin enzymatic assay (selectivity screening). Format: biochemical.
From the text: as §1

In a further data set the target is T5, Factor Xa (Homo sapiens, UniProt P00742).
T5 construct: uPA, Factor Xa, thrombin, plasmin and trypsin (Sigma, USA); purchased Sigma, USA
The data set can be described thus: Factor Xa enzymatic assay (selectivity screening). Format: biochemical.
From the text: as §1

Data set [3] concerns DU145 cells. The data set can be described thus: Migration assay in transwell chambers. Format: cell-based. Particulars: Homo sapiens, DU-145, 24 hours. The protocol: Migration assays were performed to determine the effect of matriptase inhibitors on cell motility. Cells were seeded with 10 μM test compound into transwell chambers and allowed to migrate for 24 hours using a combination of 10% FBS and 5 μg/ml fibronectin as chemoattractant.

In data set [4] the test system is DU145 cells. The data set can be described thus: Cytotoxicity, Calcein AM assay, DU145. Particulars: Homo sapiens, DU-145, 96 h, four days of incubation, read-out: Cell survival at 10 μM (%). Format: cell-based. The procedure: Cytotoxicity of the compounds was tested in cell lines or primary cells using Calcein AM assay. This assay measures cell viability by quantitation of cleaved fluorescent product of a cell permeable substrate that is retained in the cytoplasm of cells with uncompromised cytoplasmic membrane integrity. The cells were seeded into 96-well plate and allowed to adhere for a day followed by addition of compound at several different concentrations. After four days of incubation with the compound, media was removed from the cells followed by addition of PBS and addition of Calcein AM reagent at 1 μM final concentration. The cells were then allowed to incubate at 37° C. for half an hour followed by reading on the fluorimeter. Percent viability was calculated based on fluorescence value obtained at 485/520 nm with cut off at 495 nm.

Data set [5] deals with DU145 cells. The data set can be described thus: Cell invasion assay (matrigel transwell). The format is cell-based. Particulars: Homo sapiens, DU-145, 48 hours. The procedure:
Cell invasion assays were done for quantitating the degree to which invasive cells penetrate a barrier essentially as in migration assay but with the use of matrigel consisting of basement membrane components in the transwell inserts and incubating for 48 hours. The barrier used was matrigel. This was followed by fixing and staining of the transwell insert with 0.5% crystal violet in 25% methanol in order to visualize cells migrated.

For another data set, the system named is PC3 cells. The data set can be described thus: PC3 xenograft model. The following applies: for Tumor growth inhibition (%): PC3 model, 21 days. Format: in vivo. The protocol: (§2) In order to determine the in vivo efficacy, xenograft models were established by injecting 5×10^6 DU145 cells with matrigel or 5×10^6 PC3 cells without matrigel subcutaneously. Once the tumors reached palpable size (˜80 mm3), compound of Example 27 was administered in a vehicle comprising of 2% ethanol, 10% hydroxyl cyclodextrin in 0.9% saline. The compound of Example 27 was dosed subcutaneously to animals with DU145 tumors at 1.5, 5 and 15 mg/kg for 15 days. In the PC3 xenograft study, compound of Example 27 was administered at 0.5, 1.5, 5.0 and 15.0 mg/kg daily.

The subject of another data set is DU145 tumors. The data set can be described thus: DU145 xenograft model. Format: in vivo. Particulars: for Tumor growth inhibition (%): DU145 model, 15 days. The procedure: as §2
Data set [6] can be described thus: Maximum tolerated dose (MTD) study. Format: in vivo. Particulars: 14 days, male athymic mice. The procedure: An MTD study was performed for the compound of Example 27. […] The compound was administered at 1, 3, 10 and 30 mg/kg once daily in male athymic mice via subcutaneous route in 5 mice each. […]
The mark [7] stands for this setting: Table 1, read-out: Matriptase Inhibition IC50.
The mark [8] stands for this setting: Table 2, read-out: Matriptase IC50.
The mark [9] stands for this setting: 1, 3, 10 and 30 mg/kg once daily subcutaneous.

Like-named read-outs stand apart in the source and are kept apart here.

T2 sequence (P00747 581-810 limits assumed, species assumed): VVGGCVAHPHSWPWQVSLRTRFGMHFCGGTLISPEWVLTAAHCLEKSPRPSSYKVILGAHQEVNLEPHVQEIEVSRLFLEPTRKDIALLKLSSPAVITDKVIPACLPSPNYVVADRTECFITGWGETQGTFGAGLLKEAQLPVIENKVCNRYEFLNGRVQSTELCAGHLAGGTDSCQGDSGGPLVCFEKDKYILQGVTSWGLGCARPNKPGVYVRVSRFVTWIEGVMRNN
T2 sequence (P00747 97-580 partner limits assumed, species assumed): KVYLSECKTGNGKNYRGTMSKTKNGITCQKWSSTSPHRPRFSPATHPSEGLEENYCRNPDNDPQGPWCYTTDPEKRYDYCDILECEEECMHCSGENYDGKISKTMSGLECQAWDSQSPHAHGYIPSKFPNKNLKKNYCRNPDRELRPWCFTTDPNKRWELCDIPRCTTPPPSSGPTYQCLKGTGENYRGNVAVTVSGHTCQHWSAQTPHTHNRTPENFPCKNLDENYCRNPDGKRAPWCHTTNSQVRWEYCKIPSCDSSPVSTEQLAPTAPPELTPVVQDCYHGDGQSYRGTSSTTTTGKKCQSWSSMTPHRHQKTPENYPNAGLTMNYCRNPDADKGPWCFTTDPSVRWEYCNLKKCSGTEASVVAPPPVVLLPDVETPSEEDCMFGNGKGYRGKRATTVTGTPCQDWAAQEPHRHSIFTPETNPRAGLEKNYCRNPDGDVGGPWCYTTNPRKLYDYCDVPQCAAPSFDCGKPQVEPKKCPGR
T5 sequence (P00742 235-488 limits assumed): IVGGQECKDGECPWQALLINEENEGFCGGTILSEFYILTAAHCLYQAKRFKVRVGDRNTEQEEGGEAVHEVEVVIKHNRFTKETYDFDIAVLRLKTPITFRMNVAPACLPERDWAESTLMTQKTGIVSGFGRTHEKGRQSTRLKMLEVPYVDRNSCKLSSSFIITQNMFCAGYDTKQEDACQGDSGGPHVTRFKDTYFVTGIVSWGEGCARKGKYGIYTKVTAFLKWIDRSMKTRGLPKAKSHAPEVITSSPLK
T5 sequence (P00742 41-179 partner limits assumed): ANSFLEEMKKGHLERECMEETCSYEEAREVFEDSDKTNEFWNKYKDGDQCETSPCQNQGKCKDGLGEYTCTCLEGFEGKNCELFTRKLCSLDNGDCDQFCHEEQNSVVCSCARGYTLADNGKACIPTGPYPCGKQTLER

For orientation: IC50 means the concentration needed to halve the response being measured. As a reminder, the inhibition is the relative decrease from the control value, in per cent. The term EC50 denotes the concentration giving half of the maximal effect. With `N=C(N)c1ccc(Oc2cc(C(=O)NC3CCC(N)CC3)cc(Oc3ccc(C(=N)N)cc3)n2)cc1` (stereo not shown) [Example 13, N-(4-Amino-cyclohexyl)-2,6-bis-(4-carbamimidoyl-phenoxy)-isonicotinamide], in [1], the IC50 was determined as 0.02 µM. Further, the inhibition at 5 µM on plasmin was found to be 33%; on uPA, 13%; against thrombin, 28%; against Factor Xa it was 84%. Besides, the EC50 with DU145 cells [2] worked out at 0.5 µM. Moreover, in the data set with trypsin, the “Trypsin Inhibition (%)” value was found to be 92%.
As for `N=C(N)c1ccc(Oc2cc(OCc3cccc(CN)c3)cc(C(=O)NC3CCC(N)CC3)c2)cc1` (stereo not shown) [Example 47, N-(4-Aminocyclohexyl)-3-(3-aminomethylbenzyloxy)-5-(4-carbamimidoylphenoxy)benzamide], the 50% inhibitory concentration (IC50) in data set [1] (setting [7]) and in data set [1] (setting [8]) was 0.038 µM each time. Moreover, the inhibition at 5 µM against plasmin was 18%; against uPA, -1%; on thrombin, 3%; against Factor Xa it was 71%. For the same compound, the EC50 in the data set on DU145 cells [2] was 0.9 µM. Moreover, the inhibition at 10 µM turned out to be 39% with DU145 cells [3] and 63% in the data set on DU145 cells [5]. In the data set with DU145 cells [4], the viability at 10 µM is 100%.
Regarding `N=C(N)c1ccc(COc2cc(Oc3ccc(C(=N)N)cc3)cc(C(=O)N3CCC(CCN)CC3)c2)cc1` [Example 58, 2-{1-[3-(4-carbamimidoyl-benzyloxy)-5-(4-carbamimidoyl-phenoxy)benzoyl]-piperidin-4-yl}ethylamine], the half-maximal inhibitory concentration (IC50) in [1] (setting [7]) and in data set [1] (setting [8]) was 0.035 µM throughout. The inhibition at 5 µM was found to be 42% against plasmin, 7% against uPA, 70% against thrombin and 73% against Factor Xa. In addition, the EC50 in the data set with DU145 cells [2] was 0.1 µM. Further, the inhibition at 10 µM in the data set with DU145 cells [3] was found to be 63%; in the data set with DU145 cells [5], 91%. In addition, in the data set with DU145 cells [4], the viability at 10 µM is 100%.
`N=C(N)c1ccc(Oc2cc(OCc3ccc(Br)cc3)cc(C(=O)NC3CCC(N)CC3)c2)cc1` (stereo not shown) [Example 51, N-(4-Aminocyclohexyl)-3-(4-bromobenzyloxy)-5-(4-carbamimidoylphenoxy)benzamide]: the IC50 stood at 0.379 µM in data set [1] (setting [7]) and 0.122 µM in data set [1] (setting [8]). Besides, the inhibition at 5 µM against plasmin came to 25%; against uPA, 23%; on thrombin, 41%; at Factor Xa it was 52%. The EC50 in the data set with DU145 cells [2] was found to be 0.7 µM. Further, the inhibition at 10 µM in the data set with DU145 cells [3] was -4%; with DU145 cells [5], 61%. Moreover, the viability at 10 µM in the data set with DU145 cells [4] was 93%.
Take `[H]/N=C(\N)c1ccc(Oc2cc(Oc3ccc(/C(N)=N/[H])cc3)cc(C(=O)NC3CCC(N)CC3)c2)cc1` (stereo not shown) [Example 27, N-(4-Amino-cyclohexyl)-3,5-bis-(4-carbamimidoyl-phenoxy)-benzamide]: the IC50 in data set [1] (setting [7]) and in data set [1] (setting [8]) was 0.017 µM each time. Further, the inhibition at 5 µM against plasmin was determined as 33%; at uPA, 14%; on thrombin, 41%; on Factor Xa it was 83%. In addition, the EC50 in the data set on DU145 cells [2] stood at 0.2 µM. Moreover, the inhibition at 10 µM is 88% in the data set with DU145 cells [3] and 79% in the data set with DU145 cells [5]. Besides, the “Tumor growth inhibition (%)” value in the data set on PC3 cells (0.5 mg/kg daily) was determined as 14%; with PC3 cells (1.5 mg/kg daily), 44%; in the data set on PC3 cells (5 mg/kg daily), 65%; in the data set with PC3 cells (15 mg/kg daily) it was 62%; in the data set with DU145 tumors (1.5 mg/kg subcutaneously) it was 61.2%; with DU145 tumors (5 mg/kg subcutaneously), 84.5%. Also, in the data set on DU145 tumors (15 mg/kg subcutaneously), the “Tumor growth inhibition (%)” value turned out to be 75%. Further, the “Inhibition of tumor growth (in words)” value in the data set on PC3 cells (PC3 xenograft study) was “significant and dose-dependent inhibition of tumor growth”. For the same compound, the viability at 10 µM in the data set with DU145 cells [4] is 100%. Further, the “Trypsin Inhibition (%)” value in the data set on trypsin turned out to be 61%. Also, the “Reduction in tumor volume (in words)” value with DU145 tumors (DU145 xenograft study) is “significant reduction in tumor volume”. For the same compound, the Body weight reduction entry in [6] (setting [9]) is “less than 2%”. In [6] (setting [9]), the Clinical signs result is on record as “no gross changes in clinical signs”. Besides, the Mortality entry in [6] (setting [9]) was “did not show any mortality”. Further, in data set [6] (doses up to 30 mg/kg once daily subcutaneous), the Tolerability entry is “well tolerated”.
